The values that follow come from patent US6001851A, “HIV protease inhibitors” (Agouron Pharmaceuticals, Inc., priority 1998, dated 1999).

Like-named read-outs stand apart in the source and are kept apart here.

One data set addresses T1, HIV-1 protease (Q7S) (Human immunodeficiency virus type 1 group M subtype B, UniProt P03366, Q507S).
T1 construct: HIV-1 protease gene was isolated from the viral strain IIIB; made in house; host or cells: E. coli BL21(DE3), plasmid pGZ/HP-19Q7S#9
Kind of data set: Tight-binding kinetics assay, HIV-1 protease inhibition (modified chromogenic assay). In kind it is biochemical, HIV-1 (viral strain IIIB).

Data set [1] in a line: Metabolite obtained from the plasma of patients. In kind it is in vivo. The note with it: plasma of patients administered the N-t-butylcarboxamide methanesulfonic acid salt of U.S. Pat. No. 5,484,926. The text has this: A process for making compound 21 is provided below.
Data set [2] can be described thus: Cytotoxicity in uninfected CEM-SS cells (MTT). The note with it: human. In kind it is cell-based. As to the method:
(§1) The CEM-SS and MT-2 human T cell lines and HIV-1 strains RF and IIIB were obtained from the AIDS Research and Reference Program, Division of AIDS, NIAID, and NIH.
(§2) The inhibitory effects of each agent on HIV-1 replication were measured by the MTT dye reduction method (Alley, M. C. et al., Cancer Res. 48: 589-601 (1988)). Compounds were dissolved in DMSO at a concentration of 40 mg/ml then diluted 1:200 in culture medium (RPMI, supplemented with 10% fetal bovine serum). From each diluted stock, 100 μl was added to a 96-well plate and serial half-log dilutions were prepared. In separate tubes, MT-2 cells and CEM-SS cells were infected with HIV-1 IIIB or HIV-1 RF at a multiplicity of infection (m.o.i.) of 0.01 and 0.03, respectively. Following a 4-hour adsorption period, […] of infected or uninfected cells were added to the wells of the drug containing plate to give a final concentration of 1×10^4 cells/well. Six days (CEM-SS cells) or 7 days (MT-2 cells) later, MTT (5 mg/ml) was added to test plates and the amount of formazan produced was quantified spectrophotometrically at 570 nm. Data were expressed as the percentage of formazan produced in drug-treated cells compared to formazan produced in wells of uninfected, drug-free cells. The EDS50 was calculated as the concentration of drug that increased the percentage of formazan production in infected, drug-treated cells to 50% of that produced by uninfected, drug-free cells. Cytotoxicity (TC50) was calculated as the concentration of drug that decreased the percentage of formazan produced in uninfected, drug-treated cells to 50% of that produced in uninfected, drug-free cells. The therapeutic index (TI) was calculated by dividing the cytotoxicity (TC50) by the antiviral efficacy (ED50).

For another data set, the system named is HIV-1 RF. In words: Cell protection assay (MTT dye reduction): acute infection of CEM-SS cells with HIV-1 RF. In kind it is cell-based, HIV-1 strain RF (in human T cell line CEM-SS). The note with it: for EC95: read-out: ED95; for Therapeutic index: TC50/ED50, CEM-SS cells, 8640 min. As to the method: as §1, §2
The test system of another data set is HIV-1 IIIB. In words: Cell protection assay (MTT dye reduction): acute infection of MT-2 cells with HIV-1 IIIB. In kind it is cell-based, HIV-1 strain IIIB (in human T cell line MT-2). The note with it: for Therapeutic: therapeutic index TC50/ED50, MT-2 cells, 10080 min. As to the method: as §1, §2
Data set [3] can be described thus: Cytotoxicity in uninfected MT-2 cells (MTT). The note with it: human. In kind it is cell-based. As to the method: as §1, §2
The mark [4] stands for this setting: uninfected CEM-SS cells, 6 days, read-out: TC50.
The mark [5] stands for this setting: Human immunodeficiency virus 1, 144 h, CEM-SS cells, HIV-1 RF, m.o.i. 0.03, 6 days, read-out: ED50 (the source's name).
Setting [6] is: Human immunodeficiency virus 1, 144 h, CEM-SS cells, HIV-1 RF, m.o.i. 0.03, 6 days.
[7] abbreviates: Human immunodeficiency virus 1, MT2, 168 h, MT-2 cells, HIV-1 IIIB, m.o.i. 0.01, 7 days, read-out: ED50 (the source's name).
The mark [8] stands for this setting: uninfected MT-2 cells, 7 days, read-out: TC50.

Description for HIV-1 protease (Q7S): Proteolytic activity of purified HIV-1 protease was measured using a modified chromogenic assay developed by Richards at al. (Richards, A. D. et al. J. Biol. Chem., 256, 773-7736 (1990)). […] The assay was carried out in 0.5 M NaCl, 50 mM MES pH 5.6, 5 mM DDT, and 2% DMSO at 37° C. Cleavage of the scissile bond between leucine and paranitro-phenylalanine (Phe para-NO2) was assayed by spectrophotometric monitoring of the decrease on absorbance at 305 nm.

Take “His-Lys-Ala-Arg-Val-Leu-Phe(paraNO2)-Glu-Ala-Nle-Ser-NH2”: the Km at HIV-1 protease (Q7S) (substrate, Q7S HIV-1 protease, 0.5 M NaCl, 50 mM MES pH 5.6, 2% DMSO, 37° C., read-out: Michaelis constant (Km)) stood at 59 ± 17 µM.

The molecule `Cc1c(O)cccc1C(=O)NC(CSc1ccccc1)C(O)CN1CC2CCCCC2CC1C(=O)NC(C)(C)CO` (stereo not drawn) [Compound 21, [3S-[2(2S*,3S*),3 alpha,4abeta,8abeta]]-N-(1,1-dimethyl-2-hydroxyethyl)decahydro-2-[2-hydroxy-3-[(3-hydroxy-2-methylbenzoyl)amino]-4-(phenylthio)butyl]-3-isoquinolinecarboxamide] came in with a Ki on HIV-1 protease (Q7S) (tight binding kinetics, 200 uM substrate, pH 5.6, 37° C., Morrison fit) of 5.6 ± 0.91 nM. In addition, the “obtained as a metabolite” value in data set [1] is recorded as “obtained as a metabolite from the plasma of patients”. For the same molecule, the CC50 at 144 h in data set [2] (setting [4]) was found to be 96.6 µM. In addition, the EC50 in the data set with HIV-1 RF (setting [5]) was 34.2 nM; in the data set on HIV-1 IIIB (setting [7]), 85.6 nM. Besides, the EC95 with HIV-1 RF (setting [6]) was found to be 0.154 µM. Also, the Therapeutic index in the data set on HIV-1 RF (HIV-1 RF) turned out to be 2825. In the data set with HIV-1 IIIB (HIV-1 IIIB), this molecule came in with a Therapeutic of 1082. Moreover, the CC50 at 168 h in data set [3] (setting [8]) came out at 92.6 µM.

With `Cc1cn([C@H]2C[C@H](N=[N+]=[N-])[C@@H](CO)O2)c(=O)[nH]c1=O` [AZT, azidothymidine], the CC50 at 144 h in data set [2] (setting [4]) was > 374 µM. In addition, the EC50 with HIV-1 RF (Human immunodeficiency virus 1, CEM-SS, 144 h, read-out: ED50) was found to be 52.3 nM; in the data set with HIV-1 IIIB (Human immunodeficiency virus 1, IIIB, MT2, 168 h, read-out: ED50) it was 431 nM. For the same molecule, the EC95 with HIV-1 RF (Human immunodeficiency virus 1, CEM-SS, 144 h) stood at 0.543 µM. Besides, in the data set on HIV-1 RF (HIV-1 RF), the Therapeutic index is listed as > 7161. For the same molecule, the Therapeutic in the data set with HIV-1 IIIB (HIV-1 IIIB) is on record as 254. In addition, the CC50 at 168 h in data set [3] (setting [8]) is 109 µM.

For the molecule `Nc1ccn([C@H]2CC[C@@H](CO)O2)c(=O)n1` [ddC, dideoxycytidine], the CC50 at 144 h in data set [2] (cem-ss cells) was found to be 37.7 µM. Moreover, the EC50 came to 94.7 nM with HIV-1 RF (setting [5]) and 5920 nM in the data set with HIV-1 IIIB (setting [7]). For the same molecule, the EC95 with HIV-1 RF (setting [6]) was determined as 0.142 µM. The molecule also gave a Therapeutic index in the data set with HIV-1 RF (HIV-1 RF) of 398. This molecule also registered a Therapeutic with HIV-1 IIIB (HIV-1 IIIB) of 30. The CC50 at 168 h in data set [3] (mt-2 cells) was found to be 176 µM.
